The source of these data is PMC6481325, “Novel N,N-dialkyl cyanocinnamic acids as monocarboxylate transporter 1 and 4 inhibitors” (Oncotarget, 2019).

The test system of series [1] is WiDr cells. In words: SRB cell proliferation inhibition assay, WiDr. In kind it is cell-based. The settings on record: Homo sapiens, 72 hours, average ± sem. As to the method:
(§1) MDA-MB-231 cells (ATCC, 2015) were grown in DMEM supplemented with 10% FBS and penicillin-streptomycin (50 U/ml, 50 μg/ml, Invitrogen). WiDr cells (ATCC, 2017) were cultured in MEM medium supplemented with 10% FBS (Atlanta Biologicals) and penicillin-streptomycin (50 U/ml, 50 μg/ml). For in vitro experiments, after seeding, cells were incubated at 37°C in 5% CO2 for 18–24 hours before the addition of test compounds.
(§2) Cells (5 × 10^4 cells/mL) were cultured in 48-well plates. Test compounds were dissolved in DMSO (final concentration of DMSO is <0.1%) and were added to culture wells at various concentrations in replicate and incubated for 72 hours. Growth medium was removed and the wells were washed with PBS and dried. SRB (0.5% in 1% acetic acid) was added to the wells and incubated for 30–45 minutes. The wells were washed 3 times with 1% acetic acid and dried. The cellular protein was dissolved in trizma base (10 mM, pH 10.2) and absorbance was recorded at 540 nm. Percent survival was calculated using the formula %Survival=Abstest compound/Abscontrol×100 .

Series [2] deals with MCT4 expressing MDA-MB-231 cells. In words: Seahorse XFe96 mitochondrial stress test (OCR), MDA-MB-231. In kind it is cell-based. The settings on record: 30 μM. As for the experimental part:
(§3) Extracellular acidification rates (ECAR) and oxygen consumption rates (OCR) were recorded in real-time for glycolysis stress test (GST) and mitochondrial stress test (MST), respectively, using Agilent Seahorse XFe96® analyzer.

Series [3] has the same test system. Briefly: Seahorse XFe96 glycolysis stress test (ECAR), MDA-MB-231. In kind it is cell-based. The settings on record: 30 μM. As for the experimental part:
(§4) In the GST, three parameters namely glycolysis, glycolytic capacity and glycolytic reserve were measured.
as §3

In series [4] the test system is MDA-MB-231 tumor xenograft. Briefly: Tumor growth inhibition, MDA-MB-231 xenograft model. It counts as in vivo. The settings on record: SCID mice. As for the experimental part: Figure 6 In vivo xenograft studies in WiDr and MDA-MB-231 tumor models (A) WiDr tumor xenograft study of compound 3 and compound 9. Mice (n = 8) were treated with 8 mg/kg of compound 3, intraperitoneally, two times a day. (B) Tumor growth inhibition study with compound 9 in MDA-MB-231 tumor xenograft model (n = 6). Mice were treated with compound 9 (70 mg/kg, ip, bid until day-4; qd from day-5), a combination of 9 and doxorubicin (0.5 mg/kg, ip, five days a week), and doxorubicin. (C) Tumor growth inhibition based on isolated tumor mass. ^*P < 0.05, ^**P < 0.01, ^***P < 0.001, ^****P < 0.0001. Schematic representation of (D) untreated tumor cells and (E) inhibition of MCT1 and MCT4 and decreased glycolysis and mitochondrial OxPhos in compound 9 treated tumor cells. Upward hollowed arrow indicates “increase” in function/amount and downward hollowed arrow indicates “decrease” in function/amount.
Group-1 was administered with compound 9, group-2 was given a combination of compound 9 and clinical breast cancer drug doxorubicin (AKSci catalog # E518), and group-3 was treated with doxorubicin alone. Group-4 was assigned as a control group and treated with vehicle (10% DMSO in saline). The treatment was continued up to 18 days and on day 20, the mice were euthanized and tumor masses isolated and weighed. […] Due to these reasons, higher dosages of compound 9 were required to produce significant anticancer efficacy in vivo. In all these studies, <20% of body weight loss was observed.
Tumor cells suspended in 1:1 matrigel-PBS were injected on right flank of female SCID mice (n = 6 mice/group, 10^7 MDA-MB-231 cells) or right flank of female athymic nude mice (n = 8 mice/group, 5 × 10^6 WiDr cells). Tumors were measured using calipers every 2–3 days and tumor volumes were calculated using the formula V = ab^2/2 where ‘a’ is the long diameter of the tumor and ‘b’ is the short diameter of the tumor. Tumor growth inhibition was determined using the formula % inhibition = [(C – T)/C] × 100 where C is average tumor weight of the control group and T is the average tumor weight of the test group.

On the set-up of series [5]: method as in ref 32 = [32]; PMID 26005533; doi:10.1021/acsmedchemlett.5b00049; 32 Gurrapu S Jonnalagadda SK Alam MA Nelson GL Sneve MG Drewes LR Mereddy VR Monocarboxylate transporter 1 inhibitors as potential anticancer agents ACS Med Chem Lett 2015 6 558 61 10.1021/acsmedcheml. The conditions noted are these: in vivo; cited from earlier work.
The subject of series [6] is MCT1 expressing WiDr cells. In words: Seahorse XFe96 glycolysis stress test (ECAR), WiDr. In kind it is cell-based. The settings on record: 30 μM. As to the method:
as §4, §3

For series [7], the system named is WiDr tumor xenograft. Also noted: method as in ref 32, 33 = [32]; PMID 26005533; doi:10.1021/acsmedchemlett.5b00049; 32 Gurrapu S Jonnalagadda SK Alam MA Nelson GL Sneve MG Drewes LR Mereddy VR Monocarboxylate transporter 1 inhibitors as potential anticancer agents ACS Med Chem Lett 2015 6 558 61 10.1021/acsmedcheml || [33]; 33 Mereddy VR Drewes LR Alam MA Jonnalagadda SK Gurrapu S Therapeutic Compounds US 9296728B2 United States Patent and Trademark Office 2016 https://app.dimensions.ai/details/patent/US-9296728-B2. The conditions noted are these: mice, three weeks; cited from earlier work.

Series [8] concerns MCT1 expressing WiDr cells. Briefly: Seahorse XFe96 mitochondrial stress test (OCR), WiDr. It counts as cell-based. The settings on record: 30 μM. As for the experimental part:
as §3

Series [9] relates to MDA-MB-231 cells. In words: SRB cell proliferation inhibition assay, MDA-MB-231. The settings on record: 72 hours, average ± sem. In kind it is cell-based. As to the method: as §1, §2

A word on the IC50: it is the point on the concentration scale where inhibition reaches its midpoint.

Entries after “also recorded” stand apart in the source; their conditions may differ.

In series [1], `COc1cc(N(c2ccccc2)c2ccccc2)ccc1/C=C(\C#N)C(=O)O` [Phenyl (9)] registered an IC50 of 4.2 ± 0.4 µM. In series [2], the “ATP production (MST, OCR)” value is on record as “significantly decreased”; the “maximal respiration (MST, OCR)” value is recorded as “significantly decreased”; the “proton leak (MST, OCR)” value is reported as “significantly increased”; the “spare respiratory capacity (MST, OCR)” value is on record as “significantly decreased”. For the same compound, in [3], the “glycolytic capacity (GST, ECAR)” value is recorded as “decreased” and the “glycolytic reserve (GST, ECAR)” value is recorded as “completely arrested”. Further, the “tumor growth inhibition based on tumor volume” value in series [4] (9 70 mg/kg ip bid until day-4, qd from day-5, doxorubicin 0.5 mg/kg ip five days a week, treatment up to 18 days) is listed as 58%. Besides, the “tumor growth inhibition based on isolated tumor weights” value in series [4] (same regimens, tumors isolated on day 20) came out at 56%. For the same compound, in series [5], the elimination from plasma entry is recorded as “most of the compound was eliminated in less than one hour” and the “time of peak plasma concentration” value is 15 min. Moreover, in [6], the “glycolytic capacity (GST, ECAR)” value was “decreased; also recorded: significant decrease” and the “glycolytic reserve (GST, ECAR)” value is “completely arrested; also recorded: significant decrease”. The tumor growth reduction in series [7] was 33%. In series [8], the “ATP production (MST, OCR)” value is listed as “significantly decreased”; the “maximal respiration (MST, OCR)” value is “significantly decreased”; the “proton leak (MST, OCR)” value is reported as “significantly increased proton leak compared to compound 3”; the “spare respiratory capacity (MST, OCR)” value is given as “significantly decreased”. Besides, in series [9], the “SRB IC50” value is “did not show any activity”. For the same compound, the IC50 in [9] (Homo sapiens) is over 25 µM.
